pEC50: −log10 of the molar value.
Target: T1, RXFP2 (Homo sapiens, UniProt Q8WXD0)
T1 construct: expressed in transfected cells
Experiment: HTRF cAMP assay in HEK293T cells stably expressing RXFP2 (HEK-RXFP2)
Format: cell-based
Settings: for pEC50 / % EFF vs. 1 nM INSL3 (a) / % EFF vs. 1 nM INSL3 (b): IBMX 200 μM; for % EFF vs. 1 nM INSL3 (a): maximum cAMP response normalized to 1 nM INSL3 response; for % EFF vs. 1 nM INSL3 (b): normalized to 1 nM INSL3 cAMP response; for % EFF vs. 100 nM INSL3 (c): condition (c): 7,500 cells/well, IBMX omitted, normalized to 100 nM INSL3 cAMP response
Protocol: Compound efficacy and EC50 were determined by measuring cAMP induction in vitro. HEK293T cells stably expressing RXFP2 (HEK-RXFP2) produce cAMP when RXFP2 is activated, which can be measured in an antibody-based immunoassay utilizing a fluorescent readout (cAMP Gs HiRange Kit, PerkinElmer, Waltham, MA). HEK-RXFP2 cells were seeded in 96-well plates in serum-free DMEM and incubated overnight at 37° C., 5% CO2. Plates were then treated with a compound titration up to 25 μM or INSL3 control, in the presence of isobutylmethylxanthine phosphodiesterase inhibitor (IBMX) at 200 μM to amplify the cAMP signal, for 1 hour at 37° C., 5% CO2 before being processed as per kit instructions. Table 7 lists the efficacy and EC50 of compounds tested under different experimental conditions. […] In condition (a), 20,000 cells were seeded per well in the 96 well plate, and efficacy was determined by normalizing the maximum compound cAMP response to the 1 nM INSL3 cAMP response (% Efficacy 1 nM INSL3 (a)). In condition (b), 10,000 cells were seeded per well, and compound response was normalized to the 1 nM INSL3 cAMP response (% Efficacy 1 nM INSL3 (b)). In condition (c), 7,500 cells were seeded per well, compound response was normalized to the 100 nM INSL3 cAMP response, and IBMX was omitted (% Efficacy 100 nM INSL3 (c)). A range is given when compounds were tested multiple times. Where compounds were tested under multiple experimental conditions, the EC50 listed for the corresponding condition is marked (a) through (c) to correlate. When EC50 could not be calculated from the dose-response curve, EC50 is listed as not determined (ND).

[1] = condition (a): 20,000 cells/well
[2] = condition (b): 10,000 cells/well

T1 sequence (Q8WXD0 whole entry): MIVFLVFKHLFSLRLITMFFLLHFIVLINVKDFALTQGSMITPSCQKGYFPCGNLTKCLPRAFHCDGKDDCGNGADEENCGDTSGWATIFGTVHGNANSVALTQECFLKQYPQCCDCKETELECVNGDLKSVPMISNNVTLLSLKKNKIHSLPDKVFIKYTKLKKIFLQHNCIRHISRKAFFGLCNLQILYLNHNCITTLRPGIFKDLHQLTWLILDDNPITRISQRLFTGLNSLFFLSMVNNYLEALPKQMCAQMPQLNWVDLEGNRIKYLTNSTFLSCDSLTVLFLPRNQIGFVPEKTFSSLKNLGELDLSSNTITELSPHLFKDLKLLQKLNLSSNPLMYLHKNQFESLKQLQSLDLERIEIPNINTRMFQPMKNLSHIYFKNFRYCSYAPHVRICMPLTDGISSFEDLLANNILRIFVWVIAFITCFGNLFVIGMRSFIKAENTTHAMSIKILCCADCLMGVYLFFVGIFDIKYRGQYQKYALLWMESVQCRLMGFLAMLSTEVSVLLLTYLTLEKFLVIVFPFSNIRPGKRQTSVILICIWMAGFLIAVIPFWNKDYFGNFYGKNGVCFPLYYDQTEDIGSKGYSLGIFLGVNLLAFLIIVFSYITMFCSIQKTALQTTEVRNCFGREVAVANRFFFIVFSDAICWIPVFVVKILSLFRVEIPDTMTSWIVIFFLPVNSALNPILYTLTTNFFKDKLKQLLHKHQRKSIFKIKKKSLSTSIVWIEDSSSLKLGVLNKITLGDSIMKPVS

Row | Structure (SMILES) | % EFF vs. 1 nM INSL3 (a) [1] | % EFF vs. 1 nM INSL3 (b) [2] | other results
1 | O=C1Nc2ccc(-c3cccc(C(F)(F)F)c3)cc2C(=O)N2CCN(C(=O)COc3ccc(C(F)(F)F)c(F)c3F)CC12 (centres unmarked) [Example 68, 2-(2-(2,3-difluoro-4-(trifluoromethyl)phenoxy)acetyl)-8-(3-(trifluoromethyl)phenyl)-1,3,4,12a-tetrahydrobenzo[e]pyrazino[1,2-a][1,4]diazepine-6,12 (2H, 11H)-dione] | 33.99% | – | pEC50 [1]: 8.07
2 | Cc1cc(OC(F)(F)F)ccc1OCC(=O)N1CCN2C(=O)c3cc(-c4cccc(C(F)(F)F)c4)ccc3NC(=O)[C@@H]2C1 [Example 120, (S)-2-(2-(2-methyl-4-(trifluoromethoxy)phenoxy)acetyl)-8-(3-(trifluoromethyl)phenyl)-1,3,4,12a-tetrahydrobenzo[e]pyrazino[1,2-a][1,4]diazepine-6,12 (2H, 11H)-dione] | – | 70.76% | pEC50 [2]: 8.07
3 | O=C1Nc2ccc(-c3cc(C(F)(F)F)ccc3F)cc2C(=O)N2CCN(C(=O)COc3ccc(OC(F)(F)F)cc3Cl)C[C@H]12 [Example 130, (R)-2-(2-(2-chloro-4-(trifluoromethoxy)phenoxy)acetyl)-8-(2-fluoro-5-(trifluoromethyl)phenyl)-1,3,4,12a-tetrahydrobenzo[e]pyrazino[1,2-a][1,4]diazepine-6,12 (2H, 11H)-dione] | – | 54.37% | –
4 | O=C1Nc2ccc(-c3ccc(C(F)(F)F)s3)cc2C(=O)N2CCN(C(=O)COc3ccccc3)CC12 (centres unmarked) [Example 107, 2-(2-phenoxyacetyl)-8-(5-(trifluoromethyl)thiophen-2-yl)-1,3,4,12a-tetrahydrobenzo[e]pyrazino[1,2-a][1,4]diazepine-6,12 (2H, 11H)-dione] | 27.96% | – | –
5 | O=C1Nc2ccc(-c3cccc(C(F)(F)F)c3)cc2C(=O)N2CCN(C(=O)COc3ccc(C(F)(F)F)cc3Cl)C[C@@H]12 [Example 255, (S)-2-(2-(2-chloro-4-(trifluoromethyl)phenoxy)acetyl)-8-(3-(trifluoromethyl)phenyl)-1,3,4,12a-tetrahydrobenzo[e]pyrazino[1,2-a][1,4]diazepine-6,12 (2H, 11H)-dione] | – | 59.15% | pEC50 [2]: 8.01
6 | Cc1cc(-c2ccc3c(c2)C(=O)N2CCN(C(=O)COc4ccc(OC(F)(F)F)cc4Cl)C[C@H]2CN3)cc(C(F)(F)F)c1.O=C(O)C(F)(F)F [Example 151, (R)-2-(2-(2-chloro-4-(trifluoromethoxy)phenoxy)acetyl)-8-(3-methyl-5-(trifluoromethyl)phenyl)-1,3,4,11,12,12a-hexahydrobenzo[e]pyrazino[1,2-a][1,4]diazepin-6 (2H)-one-2,2,2-trifluoroacetate] | – | 0.85% | –
7 | O=C1Nc2cnc(-c3cc(C(F)(F)F)cc(C(F)(F)F)c3)cc2C(=O)N2CCN(C(=O)COc3ccc(OC(F)(F)F)cc3Br)C[C@@H]12 (single isomer, unassigned) [Example 197] | – | – | % EFF vs. 100 nM INSL3 (c): 104.06%
8 | Cc1cc(-c2ccc3c(c2)C(=O)N2CCN(C(=O)COc4ccc(OC(F)(F)F)cc4Cl)CC2C(=O)N3)cc(C(F)(F)F)c1 (centres unmarked) [Example 105, 2-(2-(2-chloro-4-(trifluoromethoxy)phenoxy)acetyl)-8-(3-methyl-5-(trifluoromethyl)phenyl)-1,3,4,12a-tetrahydrobenzo[e]pyrazino[1,2-a][1,4]diazepine-6,12 (2H, 11H)-dione] | 143.62% | 81.13-152.31% | pEC50 [2]: 6.66 to 7.07
9 | O=C1Nc2ccc(-c3cc(O)cc(C(F)(F)F)c3)cc2C(=O)N2CCN(C(=O)COc3ccc(OC(F)(F)F)cc3Br)C[C@@H]12 [Example 173, (S)-2-(2-(2-Bromo-4-(trifluoromethoxy)phenoxy)acetyl)-8-(3-hydroxy-5-(trifluoromethyl)phenyl)-1,3,4,12a-tetrahydrobenzo[e]pyrazino[1,2-a][1,4]diazepine-6,12 (2H, 11H)-dione] | – | 114.71% | pEC50 [2]: 7.19
10 | O=C1Nc2ccc(-c3cccc(C(F)(F)F)c3)cc2C(=O)N2CCN(C(=O)COc3ccc(OC(F)(F)F)cc3Cl)C[C@H]12 [Example 118, (R)-2-(2-(2-chloro-4-(trifluoromethoxy)phenoxy)acetyl)-8-(3-(trifluoromethyl)phenyl)-1,3,4,12a-tetrahydrobenzo[e]pyrazino[1,2-a][1,4]diazepine-6,12 (2H, 11H)-dione] | 43.71% | – | –
11 | O=C1Nc2ccc(-c3cccc(C(F)(F)F)c3)cc2C(=O)N2CCN(C(=O)COc3ccccc3)C[C@H]12 [Example 115, (R)-2-(2-phenoxyacetyl)-8-(3-(trifluoromethyl)phenyl)-1,3,4,12a-tetrahydrobenzo[e]pyrazino[1,2-a][1,4]diazepine-6,12 (2H, 11H)-dione] | 3.69% | – | –
12 | O=C1Nc2ccc(-c3cc(Cl)cc(C(F)(F)F)c3)cc2C(=O)N2CCN(C(=O)COc3ccc(OC(F)(F)F)cc3Cl)C[C@@H]12 [Example 163, (S)-2-(2-(2-chloro-4-(trifluoromethoxy)phenoxy)acetyl)-8-(3-chloro-5-(trifluoromethyl)phenyl)-1,3,4,12a-tetrahydrobenzo[e]pyrazino[1,2-a][1,4]diazepine-6,12 (2H, 11H)-dione] | – | 114.25% | –
13 | O=C1Nc2ccc(-c3cccc(C(F)F)c3)cc2C(=O)N2CCN(C(=O)COc3ccc(OC(F)(F)F)cc3Br)C[C@@H]12 [Example 178, (S)-2-(2-(2-Bromo-4-(trifluoromethoxy)phenoxy)acetyl)-8-(3-(difluoromethyl)phenyl)-1,3,4,12a-tetrahydrobenzo[e]pyrazino[1,2-a][1,4]diazepine-6,12 (2H, 11H)-dione] | – | – | % EFF vs. 100 nM INSL3 (c): 52.68%
14 | Cc1cc(OC(F)(F)F)ccc1OCC(=O)N1CCN2C(=O)c3cc(-c4cccc(C(F)F)c4)ccc3NC(=O)[C@@H]2C1 [Example 180, (S)-8-(3-(difluoromethyl)phenyl)-2-(2-(2-methyl-4-(trifluoromethoxy)phenoxy)acetyl)-1,3,4,12a-tetrahydrobenzo[e]pyrazino[1,2-a][1,4]diazepine-6,12 (2H, 11H)-dione] | – | – | % EFF vs. 100 nM INSL3 (c): 23.13%
15 | Cc1cc(OC(F)(F)F)ccc1OCC(=O)N1CCN2C(=O)c3cc(-c4cccc(C(F)(F)F)c4)ccc3NC(=O)C2C1 (centres unmarked) [Example 64, 2-(2-(2-methyl-4-(trifluoromethoxy)phenoxy)acetyl)-8-(3-(trifluoromethyl)phenyl)-1,3,4,12a-tetrahydrobenzo[e]pyrazino[1,2-a][1,4]diazepine-6,12 (2H, 11H)-dione] | 56.29-60.35% | – | pEC50 [1]: 7.25 to 7.43
16 | O=C1Nc2ccc(-c3cccc(C(F)(F)F)c3)cc2C(=O)N2CCN(C(=O)COc3ccc(OC(F)(F)F)cc3F)CC12 (centres unmarked) [Example 101, 2-(2-(2-fluoro-4-(trifluoromethoxy)phenoxy)acetyl)-8-(3-(trifluoromethyl)phenyl)-1,3,4,12a-tetrahydrobenzo[e]pyrazino[1,2-a][1,4]diazepine-6,12 (2H, 11H)-dione] | 35.5% | – | pEC50 [1]: 7.61
17 | O=C1Nc2ccc(-c3cc(C(F)(F)F)cc(C(F)(F)F)c3)cc2C(=O)N2CCN(C(=O)COc3ccc(OC(F)(F)F)cc3Cl)C[C@@H]12 [Example 157, (S)-8-(3,5-Bis(trifluoromethyl)phenyl)-2-(2-(2-chloro-4-(trifluoromethoxy)phenoxy)acetyl)-1,3,4,12a-tetrahydrobenzo[e]pyrazino[1,2-a][1,4]diazepine-6,12 (2H, 11H)-dione] | – | 108.89% | pEC50 [2]: 7.41

— patent US20250134907A1, “FUSED DIAZEPINES AS AGONISTS OF THE INSULIN-LIKE 3 (INSL3) PEPTIDE RECEPTOR RXFP2 AND METHODS OF USE THEREOF” (The United States of America,as represented by the …, priority 2022, published 2025)
